Assay results as given in patent US20060040931A1, “Benzomorpholine derivatives” (Toray Industries, Inc., priority 2002, published 2006).

What follows are compounds tested on platelet aggregation (assay: Monkey platelet aggregation inhibitory test after oral administration (ex vivo, ADP-induced, PRP)). Conditions: male crab-eating monkeys, blood before and 30, 60, 120, 180 min after administration, 10 μM ADP, FIG. 1.
Assay type: in vivo
Protocol: Male crab-eating monkeys (4 to 6 kg) were retained in monkey chairs. After 30 minutes of acclimatization, the compound of Example 1-13 was orally administered to the monkeys using catheters (16 Fr).
Blood was collected via saphenous veins before, and 30, 60, 120 and 180 minutes after administration of drug solutions using a syringe that had previously contained a 3.8% sodium citrate solution in a volume that was one-tenth of that of collected blood.
The collected blood was centrifuged at 1000 rpm for 10 minutes. Upper portions of the resultants were collected as platelet rich plasma (PRP). PRP was apportioned into small test tubes, and 10 μM of ADP was added thereto to induce platelet aggregation. The degree of platelet aggregation was measured as a change in turbidity using an aggregometer (Hematracer 1, Nikobioscience).

Row | SMILES | inhibitory effect of platelet aggregation after oral administration
1 | O=C(O)COc1cccc2c1OCCN2CCN(C(=O)c1ccccc1)c1ccc(Br)cc1 [Example 1-13] | strong inhibitory effect of platelet aggregation

Each compound was assayed on human platelet aggregation (assay: Human platelet aggregation inhibitory test (ADP-induced, platelet rich plasma)). Conditions: human PRP, 5 μM ADP, compound added 1 minute before ADP, turbidity (aggregometer), read-out: Platelet Aggregation Inhibitory Effect IC50.
Assay type: cell-based
Protocol: Blood collected from human median cubital vein was centrifuged at 800 rpm for 10 minutes. Upper portion of the resultant was collected as platelet rich plasma (PRP). PRP was dispensed to small test tubes, and 5 μM of ADP was added thereto to induce platelet aggregation. The degree of platelet aggregation was measured as a change in turbidity using an aggregometer (Hematracer 1, Nikobioscience). Each compound was added 1 minute before ADP addition, and calculation was carried out using as an IC50 value a concentration that inhibits aggregation by 50%.

Row | IC50 [nM] | SMILES
2 | 13 | O=C(O)COc1cccc2c1OCCN2CCN(C(=O)c1ccccc1)c1ccc(Cl)cc1 [Example 1-14]
3 | 5.3 | Cc1ccc(N(CCN2CCOc3c(OCC(=O)O)cccc32)C(=O)c2ccccc2)cc1 [Example 1-16]
4 | 5.9 | Cc1ccc(C(=O)N(CCN2CCOc3c(OCC(=O)O)cccc32)c2ccc(C)cc2)cc1 [Example 1-28]
5 | 14 | CSc1ccc(N(CCN2CCOc3c(OCC(=O)O)cccc32)C(=O)c2ccccc2)cc1 [Example 1-40]
6 | 18 | O=C(O)COc1cccc2c1OCCN2CCN(C(=O)c1ccccc1)c1ccc(Cl)cc1Cl [Example 1-49]
7 | 8.8 | O=C(O)COc1cccc2c1OCCN2CCN(C(=O)c1ccccc1)c1ccc(Cl)cc1F [Example 1-63]
8 | 27 | Cc1ccc(C(=O)N(CCN2CCOc3c(OCC(=O)O)cccc32)c2ccc(Br)cc2)cc1 [Example 2-4]
9 | 55 | O=C(O)COc1cccc2c1OCCN2CCN(C(=O)C1=CCCCC1)c1ccc(Br)cc1 [Example 2-27]
